According to patent publication US20220095617A1, “PLANT GROWTH REGULATING AGENT” (IDEMITSU KOSAN CO.,LTD., priority 2019, published 2022):
“And” between values parts separate entries of the source, which are not always exact repeats. Identical values can stand only once. Like-named read-outs stand apart in the source and are kept apart here.

Columns and labels:
Bent grass (Penncross) = experiment: Example 8: High-temperature stress pot test (bent grass); type: in vivo; conditions: for Weight of above-ground part, Increase rate: non-addition group = 100.0; for Weight of above-ground part, Average: greenhouse average daytime 50° C., 7 days, fresh weight
Experimental: Bent grass (Penncross, Snow Brand Seed Co., Ltd.) was uniformly sown on pots filled with seedling culture soil (manufactured by Katakura & Co-op Agri Corporation; Kumiai seedling culture soil for gardening Genkikun No. 1) (soil volume, 100 ml), and cultivated for 14 to 20 days, followed by evenly cutting the above-ground part to a length of about 1 cm on the day before application of hesperidin. […] A non-addition group was similarly subjected to drenching treatment using distilled water. High-temperature treatment was carried out by cultivation in a glass greenhouse (average daytime temperature, […]) for 7 days, and then the fresh weight of the above-ground part was evaluated. For each group, three measurement results were obtained (N=3).

lettuce (Green Wave) [1] = experiment: Example 23: Metal stress Petri dish test (lettuce); type: in vivo; conditions: Metal stress (AlCl3 100 μM), 1 ppm
Cabbage (Okina) = experiment: Example 10: High-temperature stress pot test (cabbage); type: in vivo; conditions: for Fresh weight of above-ground part, Increase rate / Fresh weight of underground part, Increase rate: non-addition group = 100.0; for Fresh weight of above-ground part, Average / Fresh weight of underground part, Average: greenhouse 35° C., 30 days
Experimental: Cabbage (Okina, Takii & Co., Ltd.) was sown on a cell tray filled with seedling culture soil (manufactured by Nihon Hiryo Co., Ltd.; “Naebijin N100”). […] Cultivation was carried out in a greenhouse (average daytime temperature, 35° C.) for 30 days, and then the fresh weight of the above-ground part and the fresh weight of the underground part were evaluated. For each group, 15 to 20 measurement results were obtained (N=15 to 20).

[2] = system: Carrot (US Harumakigosun carrot) seeds; experiment: Example 7: High-temperature stress Petri dish test (carrot seeds); type: in vivo; conditions: for Germination rate, Increase rate: non-addition group = 100.0; for Germination rate, Average: seeds 55° C. hot water 20 minutes, 23° C. 7 days
Experimental: (§1) Carrot (US Harumakigosun carrot, The Yokohama Nursery Co., Ltd.) seeds were soaked in hot water at 55° C. for 20 minutes to perform high-temperature treatment. […] A group similarly soaked in distilled water was provided as a non-addition group. After the soaking treatment, the seeds were dried in air, and then 20 seeds were sown on each of shallow Petri dishes in which qualitative filter paper was placed. To the filter paper in each Petri dish, 3 mL of distilled water was uniformly added dropwise. […] For each group, three measurement results were obtained (N=3).

Phythophthora infestans = type: in vivo; conditions: 14 days
lettuce (Green Wave) [3] = experiment: Example 16: Growth-promoting effect (lettuce, drenching treatment); type: in vivo; conditions: for Increase/decrease of above-ground part / Increase/decrease of underground part: non-addition group = 100%; for Weight of above-ground part FW / Weight of underground part FW: 25° C., 14 days
Experimental: Lettuce (Green Wave) was sown on a cell tray filled with seedling culture soil (manufactured by Nihon Hiryo Co., Ltd.; “Naebijin N100”). After the two leaf stage, the lettuce was transplanted to each pot (soil volume, 100 ml). […]

lettuce (Green Wave) [4] = experiment: Example 4: High-temperature stress Petri dish test (lettuce), comparison with flavonoids; type: in vivo; conditions: 0.1 ppm
lettuce (Green Wave) [5] = experiment: Example 2: High-temperature stress Petri dish test (lettuce), blending with neohesperidin; conditions: 0.1 ppm
Experimental: For seeds, 2% water agar medium (using water as the solvent), which was prepared such that hesperidin (Fujifilm Wako Pure Chemical Corporation; special-grade reagent) and neohesperidin (Fujifilm Wako Pure Chemical Corporation; special-grade reagent) were contained at the predetermined final concentrations shown in Table 2, was filled into square Petri dishes (“model number: D-210-16”, manufactured by As One Corporation). Before high-temperature treatment, lettuce (Green Wave, Takii & Co., Ltd.) was sown on 2% water agar medium, and lettuce seedlings on day 2 after the sowing were transplanted to the above-described agar medium to which the hesperidin and/or the like was/were added. At the time of the transplantation, the tip of the root was marked. Each Petri dish after the transplantation was placed in an incubator (“model number: FLI-2010A”, manufactured by EYELA) at an angle of 45° with respect to the bottom surface, and high-temperature treatment was carried out at 42° C. for 1.5 hours. Thereafter, culture was similarly performed at 23° C. for 2 days, and then the increase in the root length was evaluated in terms of elongation from the tip of the root of each seedling at the time of the transplantation. In addition, for evaluation of the effect of the mixture of hesperidin and neohesperidin in normal cultivation, culture was similarly performed at 23° C. without performing the high-temperature treatment, followed by evaluation of the increase in the root length. […] The Colby's equation is as follows.
E=(x+y)−(x·y)/100 Colby's equation:
E: Expected root length x: Root length in the case of application of hesperidin alone y: Root length in the case of application of neohesperidin alone For each group, 15 measurement results were obtained (N=15).

Dent corn (34V52) = experiment: Example 14: Growth-promoting effect (dent corn); type: in vivo; conditions: for Increase/decrease of above-ground part / Increase/decrease of underground part: non-addition group = 100%; for Weight of above-ground part FW / Weight of underground part FW: 25° C., 14 days
Experimental: Dent corn (34V52) was sown on pots filled with seedling culture soil (manufactured by Katakura & Co-op Agri Corporation; Kumiai seedling culture soil for gardening Genkikun No. 1) (soil volume, 130 ml). After confirmation of the germination, drenching treatment was carried out with 5 ml each of dilutions of hesperidin prepared at final concentrations of 1 to 10 ppm (using water as the solvent). […]

lettuce (Green Wave) [6] = experiment: Example 1: High-temperature stress Petri dish test (lettuce), comparison with other natural products; type: in vivo; conditions: 0.1 ppm in agar medium
Cabbage (Okina) seeds = experiment: Example 6: High-temperature stress Petri dish test (cabbage seeds); type: in vivo; conditions: for Germination rate, Increase rate / Root length, Increase rate: non-addition group = 100.0; for Root length, Average: after high-temperature treatment; for Germination rate, Average: seeds 52° C. hot water 25 minutes, 23° C. 4 days
Experimental: as §1, with “Cabbage (Okina, Takii & Co.,” for “Carrot (US Harumakigosun carrot, The Yokohama Nursery Co.,”, “at 52°” for “at 55°”, “for 25” for “for 20”, “obtained for the germination rate (N=3), and 15 measurement results were obtained for the root length (N=15).” for “obtained (N=3).”

lettuce (Green Wave) [7] = experiment: Example 3: High-temperature stress Petri dish test (lettuce), blending with β-carotene; type: in vivo; conditions: 0.1 ppm
[8] = High-temperature treatment (42° C., 1.5 hours)

Structure (SMILES): COc1ccc([C@@H]2CC(=O)c3c(O)cc(O[C@@H]4O[C@H](CO[C@@H]5O[C@@H](C)[C@H](O)[C@@H](O)[C@H]5O)[C@@H](O)[C@H](O)[C@H]4O)cc3O2)cc1O [Hesperidin]
- Weight of above-ground part, Increase rate (Bent grass (Penncross); 0.06 ppm): 151.7%
- Weight of above-ground part, Increase rate (Bent grass (Penncross); 0.6 ppm): 162.2%
- Weight of above-ground part, Average (Bent grass (Penncross); drenching 0.06 ppm): 3.3 g
- Weight of above-ground part, Average (Bent grass (Penncross); drenching 0.6 ppm): 3.6 g
- Death of the above-ground part (FIG. 1) (Bent grass (Penncross); groups subjected to drenching treatment (0.06 to 0.6 ppm), after high-temperature treatment): no death was found
- Root length, Average (lettuce (Green Wave) [1]): 22.87 mm
- Root length, Increase rate (lettuce (Green Wave) [1]; non-addition group = 100.0): 137.6%
- Fresh weight of above-ground part, Increase rate (Cabbage (Okina); 100 ppm): 118.0%
- Fresh weight of underground part, Increase rate (Cabbage (Okina); 100 ppm): 130.6%
- Fresh weight of above-ground part, Increase rate (Cabbage (Okina); 1000 ppm): 97.1%
- Fresh weight of underground part, Increase rate (Cabbage (Okina); 1000 ppm): 103.2%
- Fresh weight of above-ground part, Average (Cabbage (Okina); drenching 100 ppm): 0.87 g
- Fresh weight of underground part, Average (Cabbage (Okina); drenching 100 ppm): 0.32 g
- Fresh weight of above-ground part, Average (Cabbage (Okina); drenching 1000 ppm): 0.72 g
- Fresh weight of underground part, Average (Cabbage (Okina); drenching 1000 ppm): 0.25 g
- Germination rate, Increase rate ([2]; 100 ppm): 215.8%
- Germination rate, Increase rate ([2]; 1000 ppm): 173.7%
- Germination rate, Average ([2]; then soaked at 100 ppm): 68.3%
- Germination rate, Average ([2]; then soaked at 1000 ppm): 55.0%
- Preventive value (Phythophthora infestans; 10 ppm foliar spraying on tomato (Regina)): 37.4
- Preventive value (Phythophthora infestans; 30 ppm foliar spraying on tomato (Regina)): 86.0
- Preventive value (Phythophthora infestans; 100 ppm foliar spraying on tomato (Regina)): 92 and 92.1
- Increase/decrease of above-ground part (lettuce (Green Wave) [3]; 1 ppm): 103%
- Increase/decrease of underground part (lettuce (Green Wave) [3]; 1 ppm): 115%
- Increase/decrease of above-ground part (lettuce (Green Wave) [3]; 3 ppm): 126%
- Increase/decrease of underground part (lettuce (Green Wave) [3]; 3 ppm): 119%
- Increase/decrease of above-ground part (lettuce (Green Wave) [3]; 100 ppm): 118%
- Increase/decrease of underground part (lettuce (Green Wave) [3]; 100 ppm): 123%
- Weight of above-ground part FW (lettuce (Green Wave) [3]; drenching treatment 1 ppm): 13.26 mg/individual
- Weight of underground part FW (lettuce (Green Wave) [3]; drenching treatment 1 ppm): 7.99 mg/individual
- Weight of above-ground part FW (lettuce (Green Wave) [3]; drenching treatment 3 ppm): 16.17 mg/individual
- Weight of underground part FW (lettuce (Green Wave) [3]; drenching treatment 3 ppm): 8.29 mg/individual
- Weight of above-ground part FW (lettuce (Green Wave) [3]; drenching treatment 100 ppm): 15.12 mg/individual
- Weight of underground part FW (lettuce (Green Wave) [3]; drenching treatment 100 ppm): 8.57 mg/individual
- Root length (lettuce (Green Wave) [4]; [8]): 16.5 mm
- Root length (lettuce (Green Wave) [4]; Normal cultivation): 23.1 mm
- Root length (lettuce (Green Wave) [5]; [8]): 10.9 mm
- Root length (lettuce (Green Wave) [5]; Normal cultivation): 19.2 mm
- Increase/decrease of above-ground part (Dent corn (34V52); 1 ppm): 114%
- Increase/decrease of underground part (Dent corn (34V52); 1 ppm): 126%
- Increase/decrease of above-ground part (Dent corn (34V52); 3 ppm): 111%
- Increase/decrease of underground part (Dent corn (34V52); 3 ppm): 123%
- Increase/decrease of above-ground part (Dent corn (34V52); 10 ppm): 104%
- Increase/decrease of underground part (Dent corn (34V52); 10 ppm): 103%
- Weight of above-ground part FW (Dent corn (34V52); drenching 1 ppm): 6.5 mg/individual
- Weight of underground part FW (Dent corn (34V52); drenching 1 ppm): 5.1 mg/individual
- Weight of above-ground part FW (Dent corn (34V52); drenching 3 ppm): 6.3 mg/individual
- Weight of underground part FW (Dent corn (34V52); drenching 3 ppm): 5.0 mg/individual
- Weight of above-ground part FW (Dent corn (34V52); drenching 10 ppm): 5.9 mg/individual
- Weight of underground part FW (Dent corn (34V52); drenching 10 ppm): 4.2 mg/individual
- Root length (lettuce (Green Wave) [6]; High-temperature treatment (42° C., 1.5 hours), then 23° C. 2 days): 24.0 mm
- Root length (lettuce (Green Wave) [6]; Normal cultivation): 25.1 mm
- Germination rate, Increase rate (Cabbage (Okina) seeds; 100 ppm): 127.1%
- Root length, Increase rate (Cabbage (Okina) seeds; 100 ppm): 189.7%
- Germination rate, Increase rate (Cabbage (Okina) seeds; 1000 ppm): 150.3%
- Root length, Increase rate (Cabbage (Okina) seeds; 1000 ppm): 224.6%
- Root length, Average (Cabbage (Okina) seeds; 100 ppm): 43.6 mm
- Root length, Average (Cabbage (Okina) seeds; 1000 ppm): 51.6 mm
- Germination rate, Average (Cabbage (Okina) seeds; then soaked at 100 ppm): 66.2%
- Germination rate, Average (Cabbage (Okina) seeds; then soaked at 1000 ppm): 78.3%
- Root length (lettuce (Green Wave) [7]; [8]): 15.0 mm
- Root length (lettuce (Green Wave) [7]; Normal cultivation): 22.2 mm
